Data: patent US20100239563A1 (priority 2001, published 2010)

Experiments:
[1] = system: influenza A virus strain fowl plague virus A/Fpv/Bratislava/79; assay type: cell-based
[2] = system: influenza A virus strain fowl plague virus A/Fpv/Bratislava/79 (H7N7); assay type: cell-based

Row | Structure (SMILES) | virus multiplication vs cells not treated with SB202190 [1] | virus multiplication vs cells not treated with U0126 [2]
1 | Oc1ccc(-c2nc(-c3ccc(F)cc3)c(-c3ccncc3)[nH]2)cc1 [SB202190, 4-(4-fluorophenyl)-2-(4-hydroxyphenyl)-5-(4-pyridyl) 1H-imidazole] | significantly inhibited | 
2 | N#CC(=C(N)Sc1ccccc1N)C(C#N)=C(N)Sc1ccccc1N [U0126, 1,4-diamino-2,3-dicyano-1,4-bis(2-aminophenylthio)butadiene] |  | significantly inhibited
